Earlier results as cited in patent US20210113548A1, “METHODS FOR DETERMINING A DRUG DOSING REGIMEN” (Clear Creek Bio, Inc., priority 2019, published 2021).

What was measured:
solid tumor malignancies = details: administered over a 5-day period followed by a 3-week gap or once per week for three weeks followed by a 1-week gap

Cc1c(-c2ccc(-c3ccccc3F)cc2)nc2ccc(F)cc2c1C(=O)O [brequinar, 6-fluoro-2-(2′-fluoro-1,1′ biphenyl-4-yl)-3-methyl-4-quinoline carboxylic acid]
efficacy in treatment of solid tumor malignancies (solid tumor malignancies): ineffective
adverse effects of daily administration of high doses (mouse model of AML): weight loss, anemia, and thrombocytopenia
